# Measured values: US10919923B2, “Organic phosphorus-based compound, and flame retardant and flame-retardant product comprising the same” (TEIJIN LIMITED, priority 2016, dated 2021)
# Tests used:
# Format in all cases: physicochemical
# [1] = ΔpH value of filtrate after stirring compound in dispersant solution; settings: 1 g compound in 1% phenol type nonionic surfactant solution, |pH1−pH2|
# Description: The ΔpH value can be measured by the following method using a commercially available pH measuring instrument. 1 g of a dispersant is added to 99 g of distilled water used for the measurement and stirred to measure the pH of the obtained aqueous solution (the measurement value is designated as pH1). After 1 g of the organic phosphorus-based compound (1) of the present invention is added to the aqueous solution and stirred for 1 minute, the organic phosphorus-based compound (1) is filtered. The pH of the obtained filtrate is measured (the measurement value is designated as pH2). The ΔpH value of the present invention is calculated from the following equation (I). ΔpH value=|pH1−pH2| (I) (vi) Volume Standard Median Diameter, (vii) Maximum Particle Diameter, (viii) Standard Deviation
# This was measured by the following method using a pH measuring instrument (HORIBA pH METER D-52 of HORIBA, LTD.). 1 g of a dispersant (phenol type nonionic surfactant) was added to 99 g of distilled water used for the measurement and stirred to measure the pH of the obtained aqueous solution (the measurement value was designated as pH1). After 1 g of the organic phosphorus-based compound was added to the aqueous solution and stirred for 1 minute, the organic phosphorus-based compound was filtered. The pH of the obtained filtrate was measured (the measurement value was designated as pH2). The ΔpH value was calculated from the following equation (I). ΔpH value=|pH1−pH2| (I) (vi) Volume Standard Median Diameter, (vii) Maximum Particle Diameter, (viii) Standard Deviation
# [2] = Solubility in 20° C. water (visual check of dissolution); settings: distilled water at 20° C., stirred 1 minute per addition
# Description: Dissolution was visually checked after the organic phosphorus-based compound was added little by little to 100 g of distilled water adjusted to 20° C. and stirred for 1 minute for each addition.
# [3] = Storage stability of processing agent (fire retardant for fibers); set-up: key: ◯: no agglomeration and no sedimentation are seen by visual checking; X: agglomeration and sedimentation are seen by visual checking; settings: processing agent with 30 parts compound per 100 parts polyacrylic acid ester emulsion, 25° C. for 24 hours
# Description: After interior car sheet cloth for automobiles was coated with the following processing liquid, its flame resistance and physical properties were tested. (test cloth): Polyester 100% woven car sheet cloth (weight of 300 g/m^2) was used. (processing agent): This was prepared by adding 1.5 parts of a nonionic surfactant, 1 part of a polyacrylic acid-based thickener and 0.5 part of 25% ammonia water to 100 parts of a polyacrylic acid ester emulsion having a solid content of 45% and further adding 30 parts of each of the above organic phosphorus-based compounds (FR-1 to FR-6) under agitation. The obtained processing agent was left to stand at 25° C. for 24 hours to evaluate its storage stability based on the following criteria.
# ◯: no agglomeration and no sedimentation are seen by visual checking
# X: agglomeration and sedimentation are seen by visual checking
# [4] = Particle size distribution by Microtrack HRA
# Description: The volume standard median diameter (vi), the maximum particle diameter (vii) and the standard deviation (viii) can be measured by using the microtrack of Nikkiso Co., Ltd. and measurement conditions that the particles should be transparent and that the particle shape should be nonspherical.
# They were measured by using the Microtrack HRA of Nikkiso Co., Ltd. The measurement conditions are that the particles should be transparent, the particle shape should be nonspherical, the refractive index of the particles should be 1.60, and the refractive index of the solvent should be 1.33.
Compound,(v) ΔpH value [1],(ii) Solubility in 20° C. water [2],Stability [3],(vi) Volume standard median diameter [4] [μm],(vii) Maximum particle diameter [4] [μm]
"O=P1(Cc2ccccc2)OCC2(CO1)COP(=O)(Cc1ccccc1)OC2 (single isomer, unassigned) [FR-1, 2,4,8,10-tetraoxa-3,9-diphosphaspiro[5.5]undecane,3,9-dibenzyl-3,9-dioxide]",0.5,0.01 g/100 g of water,◯,18,150
"O=P1(Cc2ccccc2)OCC2(CO1)COP(=O)(Cc1ccccc1)OC2 (single isomer, unassigned) [FR-5, 2,4,8,10-tetraoxa-3,9-diphosphaspiro[5.5]undecane, 3,9-dibenzyl-3,9-dioxide]",0.5,0.01 g/100 g of water,◯,40,300
"O=P1(Cc2ccccc2)OCC2(CO1)COP(=O)(Cc1ccccc1)OC2 (single isomer, unassigned) [FR-6, 2,4,8,10-tetraoxa-3,9-diphosphaspiro[5.5]undecane,3,9-dibenzyl-3,9-dioxide]",1.3,0.01 g/100 g of water,X,21,140
"CC(c1ccccc1)P1(=O)OCC2(CO1)COP(=O)(C(C)c1ccccc1)OC2 (stereo not drawn) [FR-2, 2,4,8,10-tetraoxa-3,9-diphosphaspiro[5.5]undecane,3,9-diα-methylbenzyl-3,9-dioxide]",0.6,0.01 g/100 g of water,◯,20,160
"O=P1(CCc2ccccc2)OCC2(CO1)COP(=O)(CCc1ccccc1)OC2 (stereo not drawn) [FR-3, 2,4,8,10-tetraoxa-3,9-diphosphaspiro[5.5]undecane,3,9-di(2-phenylethyl)-3,9-dioxide]",0.3,0.01 g/100 g of water,◯,22,140
"O=P1(C(c2ccccc2)c2ccccc2)OCC2(CO1)COP(=O)(C(c1ccccc1)c1ccccc1)OC2 (stereo not drawn) [FR-4, 2,4,8,10-tetraoxa-3,9-diphosphaspiro[5.5]undecane, 3,9-bis(diphenylmethyl)-3,9-dioxide]",0.7,0.01 g/100 g of water,◯,25,180
